This note sets out measurements from the METLIN SMRT retention time set (Domingo-Almenara et al. 2019).

This data set is described as follows: gradient 5% acetonitrile 3 min, to 50% in 2 min, to 85% in 15 min, held 3 min, 100 µL/min. The note with it: column: Zorbax Extend-C18 2.1 x 50 mm; eluents: water / acetonitrile, 0.1% formic acid. The essentials: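 Retention times come from adduct peaks that were picked computationally and then checked by hand. The standards, pure and pooled in mixtures of ~100 molecules, were run on a Zorbax Extend-C18 column (2.1 × 50 mm, 1.8 μm) at 100 μL/min with water and acetonitrile, each with 0.1% formic acid. Detection was by quadrupole time-of-flight mass spectrometry in positive and negative ionization mode, with a dead volume of 40 μL and a dwell volume of 900 μL.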
Compound `CCN1C=C(C(=O)OCc2ccccc2)C(C)=NS1(=O)=O` gave an RP-LC retention time of 958 s.
As for `Cc1ccc(C(=O)N2C[C@@H]3C[C@H]2C[C@@H]3NS(=O)(=O)c2cccs2)cc1F`, the RP-LC retention time came to 827 s.
For `CC(C)n1cc(S(=O)(=O)N2CCN(c3cccc(Cl)c3)CC2)c2cccnc21` the value was 761 s.
Regarding `Cc1nc(-c2noc(-c3ccc(F)cc3)n2)cn1CC(=O)NCc1ccc(Cl)cc1`, the RP-LC retention time is 896 s.
For the compound `COC(=O)c1ccc(Cl)cc1NC(=O)N1CCN(CCn2c(C)nc3cccnc32)CC1`, the RP-LC retention time turned out to be 657 s.
For `Cc1ccc(-n2ncc3c(N4CCN(CCO)CC4)ncnc32)cc1Cl` the value was 651 s; for `Cc1ccc(S(=O)(=O)CCc2nc(-c3cccc(-c4ccnn4C)c3)no2)cc1`, 910 s.
For `O=C(Nc1ccc(F)cc1F)C1CCN(S(=O)(=O)c2cc(-c3noc(C4CC4)n3)cs2)CC1` the value was 997 s; for `COCCn1c(CC2CCN(C(=O)Nc3cccc(Cl)c3C)C2)nc2cccnc21` (stereo not given), 631 s.
The same measure for `CCc1c(C2CCN(C(=O)c3ccn(CC)n3)CC2)noc1N`: 644 s; for `O=C(Cc1cccc(F)c1)N1CCN(C(=O)c2nnn3c2COC(c2ccccc2)C3)CC1` (stereo not given): 854 s.
`COC(=O)c1ccc(C2CC(=O)Nc3cc(OC)cc(OC)c32)cc1` (stereo not given) showed an RP-LC retention time of 784 s.
The same measure for `CCCCS(=O)(=O)N1CC(c2noc(-c3cccnc3)n2)C2(CCOCC2)C1` (stereo not given): 788 s.
`Cc1ccc(S(=O)(=O)c2cnc(N3CCN(C(=O)OC(C)(C)C)CC3)nc2N)cc1` registered an RP-LC retention time of 1030 s.
As to `O=C(Cc1csc2nc(-c3cccc(Br)c3)cn12)Nc1ccccc1F`, the RP-LC retention time was determined as 958 s.
For `Cn1ccnc1SCC(=O)Nc1nc(-c2ccc(Cl)cc2)cs1` the value was 690 s.
`COc1ccc(-c2cc(=O)c3cc(Br)ccc3o2)cc1OC` gave an RP-LC retention time of 912 s.
The same measure for `O=S(=O)(Cc1ccccc1)N1CCCC(c2nn[nH]n2)C1` (stereo not given): 706 s; for `O=C(COc1ncccn1)Nc1ccc(F)c(F)c1`: 665 s; for `Cc1noc(-c2ccc(NC(=O)COc3ccc(Cl)cc3Cl)cc2)n1`: 1030 s.
The same measure for `Cc1ccccc1Oc1nccn2c(=O)n(CC(=O)Nc3cc(F)ccc3F)nc12`: 908 s; for `CCc1noc(COC2CCCN(C(=O)NCCc3ccccc3)C2)n1` (stereo not given): 796 s.
`O=S(=O)(NCc1nc(-c2cccc(-c3ccn[nH]3)c2)no1)c1ccccc1` yielded an RP-LC retention time of 768 s.
In turn, `CC(=O)Nc1ccc(-c2nc3ccccc3s2)cc1` had an RP-LC retention time of 799 s.
In the case of `CCC1(O)CCC12CCN(C(=O)C1CC1)CC2` (stereo not given), the RP-LC retention time came to 678 s.
`Cc1cn2c(S(=O)(=O)N3CCCCC3)c(C(C)C)nc2s1` yielded an RP-LC retention time of 1020 s.
Compound `O=C(Cn1nc(C(=O)N2CCOCC2)c2ccccc21)Nc1ccc(F)cc1` showed an RP-LC retention time of 733 s.
`Cc1cccc(-c2ncccc2CNS(=O)(=O)c2ccccc2F)c1` registered an RP-LC retention time of 702 s.
On to `COc1ccc(CNC(=O)c2cn3ccccc3n2)c(OC)c1`, for which the RP-LC retention time came out at 658 s.
`Cc1ccc(CC(=O)Nc2ccc3c(c2)CCC(=O)N3)cc1` registered an RP-LC retention time of 708 s.
In turn, `C=C1C(=O)C23CC[C@@H]4C(C)(C(=O)OC)CCCC4(C)[C@@H]2CCC1(O)C3` (stereo not given in full) came in with an RP-LC retention time of 902 s.
For `O=C(Cc1cccs1)NCC1CCS(=O)(=O)C1` (stereo not given) the value was 586 s; for `CN1CCN(C(=O)c2cc3n(n2)CC(C)(C(=O)NCc2ccccc2)N(C)C3=O)CC1` (stereo not given), 572 s; for `CCCN(C)C(=O)c1ccc2nc(-c3ccc(C)cc3)cn2c1`, 641 s.
Take `c1cc(-c2nnc3sc(-c4csc5c4CCCC5)nn23)ccn1`: the RP-LC retention time worked out at 993 s.
For `O=C(c1cccs1)N1CCN(c2ccc(=O)n(-c3cccc(Cl)c3)n2)CC1` the value was 814 s; for `Cc1ccc(C(=O)NCCc2nc3cccnc3n2C(C)C)cc1C`, 695 s; for `COc1ccc(C(=O)N2CCC3(C2)C(=O)Nc2ccccc23)c(OC)c1` (stereo not given), 655 s.
For the compound `Cc1ccc(CNC(=O)Cc2csc3nc(-c4cccc(Br)c4)cn23)cc1`, the RP-LC retention time was 963 s.
`COc1ccc(-c2nc3ccccn3c2Nc2ccc3c(c2)OCO3)cc1` gave an RP-LC retention time of 633 s.
The same measure for `O=C(CSc1ncnc2c1[nH]c1ccccc12)N1CCc2ccccc2C1`: 842 s.
The same measure for `CC(C)NC(=O)N1CCCC(c2cccc(C(=O)NCc3ccc(F)cc3F)c2)C1` (stereo not given): 862 s; for `CC(=O)N1CCC(C(=O)Nc2nccs2)CC1`: 584 s.
The same measure for `Cc1nc2c(ccc3nc(NC(=O)CN4C(=O)c5ccccc5C4=O)sc32)s1`: 780 s; for `Fc1ccc(-c2nnc(Cc3nc(-c4ccccc4)no3)o2)cc1`: 992 s; for `COc1ccc(OC)c(CNC(=O)c2c(O)c3cccnc3[nH]c2=O)c1`: 921 s.
`Cc1cc(C)cc(-n2ccn(Cc3nc(-c4ccc(C(C)(C)C)cc4)no3)c(=O)c2=O)c1` displayed an RP-LC retention time of 1130 s.
The same measure for `Cc1ccc(C)c(NC(=O)Cn2c(N3CCCCC3)nc(C)cc2=O)c1`: 688 s.
The same measure for `Cn1c(=O)c2nc(S(=O)(=O)CCC(=O)Nc3cc(F)ccc3F)n(C)c2n(C)c1=O`: 730 s; for `Cc1ncsc1CN1CCC(Oc2ccccc2-c2nc(-c3ccccc3)no2)C1` (stereo not given): 732 s.
The compound `CCS(=O)(=O)N1CC(=O)N(c2ccc(C)c(C)c2)C(C)(C(=O)NCc2ccccc2)C1` (stereo not given) yielded an RP-LC retention time of 860 s.
For `COC(=O)C1=C(C)N(Cc2ccccc2)C(=O)NC1c1ccccc1[N+](=O)[O-]` (stereo not given) the value was 856 s.
On to `O=C(c1ccc(S(=O)(=O)c2ccccc2)nc1)N1CCN(C2CCCCC2)CC1`, for which the RP-LC retention time is 566 s.
The same measure for `CC1CCC(NC(=O)Cn2nc(C(=O)N3CCCC3)c3ccccc32)CC1` (stereo not given): 892 s.
For `Cn1nc(C(=O)N2CCOCC2)c2c1CCN(C(=O)Nc1ccccc1Cl)C2` the value was 674 s.
The same measure for `CC(CCNC(=O)C1CCN(Cc2cn(C)c3ccc(Cl)cc23)CC1)N1CCCCCC1` (stereo not given): 569 s; for `COc1ccc(CCNS(=O)(=O)c2cccc(-c3nc(-c4ccc(C)cc4)no3)c2)cc1OC`: 1150 s; for `Cc1cccc(-c2nc3ccccn3c2NC(=O)Nc2ccccc2)c1`: 665 s.
Regarding `COCCN1C(=O)[C@H]2CN(Cc3ccc(F)cc3)C[C@H]2C1=O`, the RP-LC retention time came out at 585 s.
For `CCn1c(=O)c(N2CCN(C(=O)Nc3ccc(Br)cc3F)CC2)nc2cccnc21` the value was 1000 s; for `CCOc1cccc(-c2noc(CCn3nc(-c4ccc5c(c4)OCO5)ccc3=O)n2)c1`, 978 s.
In turn, `COc1ccc(CNC(=O)C2(c3ccc(NS(C)(=O)=O)cc3)CCCCC2)cc1` showed an RP-LC retention time of 859 s.
Compound `CCOc1ccc(CNC(=O)C2CCN(C(=O)C3Sc4ccccc4NC3=O)CC2)cc1OC` (stereo not given) returned an RP-LC retention time of 712 s.
`O=C(NCC1CCN(S(=O)(=O)C2CC2)CC1)Oc1ccccc1` came in with an RP-LC retention time of 745 s.
`CC(C)(C)c1csc(-c2csc(S(=O)(=O)Nc3ccc(F)c(Cl)c3)c2)n1` yielded an RP-LC retention time of 1310 s.
With `O=C(Nc1nc(-c2cccnc2)cs1)c1ccc(Br)s1`, the RP-LC retention time stood at 654 s.
The same measure for `COc1ccc(NC(=O)N2CCN(c3cnn4c(C)nnc4c3)CC2)c(OC)c1`: 577 s; for `CCNC(=O)c1c(-c2cccc(F)c2)noc1C`: 797 s; for `CC(C)CNC(=O)N1CCN(Cc2nc3cc(C(=O)N(C)C)ccc3o2)CC1`: 579 s.
For the compound `O=C(CNC(=O)C(c1ccccc1)c1ccccc1)NCC(=O)N1CCCc2ccccc21`, the RP-LC retention time stood at 875 s.
As for `CS(=O)(=O)N1CCC(C(=O)Nc2ccc(F)cc2)Oc2ccc(Cl)cc21` (stereo not given), the RP-LC retention time stood at 903 s.
The compound `CC1=C(c2ccc(C)c(C)c2)S(=O)(=O)N=C1N1CCC(C(=O)NC(C)Cc2ccco2)CC1` (stereo not given) returned an RP-LC retention time of 855 s.
As to `CCC1(C(=O)Nc2cc(OC)ccc2OC)CCCCC(=O)N1` (stereo not given), the RP-LC retention time amounted to 722 s.
For `CCOCCCNC(=O)c1ccc(Oc2nccnc2N2CCC(C)CC2)cc1` the value was 1030 s; for `COCCn1c(C2CCN(S(=O)(=O)c3ccc(F)c(Cl)c3)C2)nc2ccncc21` (stereo not given), 590 s.
For `COc1ccc(NC(=O)N2CCc3cn(C)c4cccc(c34)C2)cc1OC` the value was 794 s; for `Cc1nn(C(C)C(=O)NCc2ccccn2)c(=O)c2c(C)n(-c3ccccc3)nc12` (stereo not given), 638 s.
For `CCN1C(=O)c2cccnc2Sc2cc(CNC(=O)c3sccc3C)ccc21` the value was 779 s; for `O=C(Nc1ccccc1F)N1CCC(n2cnc3c(Cl)cccc3c2=O)CC1`, 828 s.
In the case of `CC1CCCN(Cc2nc(-c3ccc(N(C)Cc4ccccc4)nc3)no2)C1` (stereo not given), the RP-LC retention time was 734 s.
